What was measured:
Assay type in all cases: functional
[1] = species on record: Mus musculus; assay: Tested for its ability to eliminate the infective trypomastigote form of Trypanosoma cruzi, Y strain present in blood of infected mice at the dose of 0.21 mM
[2] = species on record: Mus musculus; assay: Tested for its ability to eliminate the infective trypomastigote form of Trypanosoma cruzi, Y strain present in blood of infected mice at the dose of 0.22 mM
[3] = species on record: Mus musculus; assay: Tested for its ability to eliminate the infective trypomastigote form of Trypanosoma cruzi, Y strain present in blood of infected mice at the dose of 0.20 mM
[4] = species on record: Mus musculus; assay: Tested for its ability to eliminate the infective trypomastigote form of Trypanosoma cruzi, Y strain present in blood of infected mice at the dose of 0.18 mM
[5] = species on record: Mus musculus; assay: Tested for its ability to eliminate the infective trypomastigote form of Trypanosoma cruzi, Y strain present in blood of infected mice at the dose of 0.50 mM
[6] = species on record: Mus musculus; assay: Tested for its ability to eliminate the infective trypomastigote form of Trypanosoma cruzi, Y strain present in blood of infected mice at the dose of 0.19 mM
[7] = species on record: Mus musculus; assay: Tested for its ability to eliminate the infective trypomastigote form of Trypanosoma cruzi, Y strain present in blood of infected mice at the dose of 0.24 mM
[8] = species on record: Mus musculus; assay: Tested for its ability to eliminate the infective trypomastigote form of Trypanosoma cruzi, Y strain present in blood of infected mice at the dose of 0.25 mM
[9] = species on record: Mus musculus; assay: Tested for its ability to eliminate the infective trypomastigote form of Trypanosoma cruzi, Y strain present in blood of infected mice at the dose of 0.12 mM
[10] = species on record: Mus musculus; assay: Tested for its ability to eliminate the infective trypomastigote form of Trypanosoma cruzi, Y strain present in blood of infected mice at the dose of 0.29 mM
[11] = species on record: Mus musculus; assay: Tested for its ability to eliminate the infective trypomastigote form of Trypanosoma cruzi, Y strain present in blood of infected mice at the dose of 0.23 mM

CC(C)c1cc2c(o1)C(=O)c1ccccc1C2=O
Lysis [1]: 88%

CC/C=C/C1=C(O)C(=O)c2ccccc2C1=O
Lysis [2]: 68%

COc1cccc2c1C(=O)c1ccsc1C2=O
Lysis [3]: 0%

COc1ccc2c(c1OC)C(=O)c1sccc1C2=O
Lysis [4]: 19%

O=C1C(=O)c2ccoc2-c2ccccc21
Lysis [5]: 100%

COc1cccc2c1C(=O)c1sccc1C2=O
Lysis [3]: 26%

COc1cccc2c1C(=O)c1ccoc1C2=O
Lysis [2]: 52%

O=C1c2ccccc2C(=O)c2sc([N+](=O)[O-])cc21
Lysis [6]: 54%

Cc1cc2c(o1)C(=O)c1ccccc1C2=O
Lysis [7]: 18%

CCc1cc2c(o1)C(=O)c1ccccc1C2=O
Lysis [2]: 24%

O=C1c2ccccc2C(=O)c2occc21
Lysis [8]: 33%

CC(C)/C=C/C1=C(O)C(=O)c2ccccc2C1=O
Lysis [1]: 81%

CCc1cc2c(o1)-c1ccccc1C(=O)C2=O
Lysis [2]: 94%

COc1ccc2c(c1)C(=O)c1ccsc1C2=O
Lysis [3]: 9%

COc1cc(OC)c2c(c1)C(=O)c1sccc1C2=O
Lysis [4]: 19%

CC(C)c1cc2c(o1)-c1ccccc1C(=O)C2=O
Lysis [1]: 94%

CC1(C)CCC2=C(O1)C(=O)c1ccccc1C2=O [ALPHA-LAPACHONE]
Lysis [1]: 48%

CN(C)c1ccc(C(=C2C=CC(=[N+](C)C)C=C2)c2ccc(N(C)C)cc2)cc1.[Cl-] [GENTIAN VIOLET]
Lysis [9]: 100%

CC(C)=CCC1=C(O)C(=O)c2ccccc2C1=O [LAPACHOL]
Lysis [1]: 65%

CC1(C)CCC2=C(O1)c1ccccc1C(=O)C2=O [LAPACHONE]
Lysis [1]: 76%

O=C1C=C(O)C(=O)c2ccccc21 [LAWSONE]
Lysis [10]: 76%

O=C1c2ccccc2C(=O)c2sccc21 [THIOPHENONAPHTHOQUINONE]
Lysis [11]: 13%

Source: ChEMBL document CHEMBL1130355, “Trypanocidal activity and redox potential of heterocyclic- and 2-hydroxy-naphthoquinones” (1997)
